From PubChem BioAssay AID248 (DTP/NCI, 2004)
Where “and” joins values, the source holds several entries; their conditions need not be identical. Identical values can stand only once. Toxic doses and inconclusive results are not listed. Rule as the data show it: active = T/C of 150% or more; inactive = T/C below 125%.

System: L1210 leukemia ip in BDF1 mice, survival T/C
Test: NCI In Vivo Anticancer Drug Screen. Data for tumor model L1210 Leukemia (intraperitoneal) in B6D2F1 (BDF1) mice
Conditions: endpoint: mean survival time, higher = longer survival
In short: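 Transplantable tumor model; survival measured in treated vs vehicle control mice. Value = treated/control.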

[1] = dose: 25.0 mg/kg/injection, schedule: Q01DX009 (ip), vehicle: saline
[2] = dose: 100.0 mg/kg/injection, schedule: Q01DX009 (ip), vehicle: Klucel (hydroxypropylcellulose) (HPC)
[3] = dose: 100.0 mg/kg/injection, schedule: Q04DX003 (ip), vehicle: Klucel (hydroxypropylcellulose) (HPC)
[4] = dose: 200.0 mg/kg/injection, schedule: Q01DX009 (ip), vehicle: Klucel (hydroxypropylcellulose) (HPC)
[5] = dose: 200.0 mg/kg/injection, schedule: Q04DX003 (ip), vehicle: Klucel (hydroxypropylcellulose) (HPC)
[6] = dose: 400.0 mg/kg/injection, schedule: Q04DX003 (ip), vehicle: Klucel (hydroxypropylcellulose) (HPC)
[7] = dose: 100.0 mg/kg/injection, schedule: Q01DX009 (ip), vehicle: saline with Tween-80
[8] = dose: 200.0 mg/kg/injection, schedule: Q01DX009 (ip), vehicle: saline with Tween-80
[9] = dose: 100.0 mg/kg/injection, schedule: Q04DX003 (ip), vehicle: saline
[10] = dose: 200.0 mg/kg/injection, schedule: Q04DX003 (ip), vehicle: saline
[11] = dose: 100.0 mg/kg/injection, schedule: Q04DX003 (ip), vehicle: saline with Tween-80
[12] = dose: 200.0 mg/kg/injection, schedule: Q04DX003 (ip), vehicle: saline with Tween-80
[13] = dose: 400.0 mg/kg/injection, schedule: Q01DX009 (ip), vehicle: saline with Tween-80
[14] = dose: 400.0 mg/kg/injection, schedule: Q04DX003 (ip), vehicle: saline with Tween-80

Measured: T/C

Cc1ccc(C(C)C)c(OCCNC2=NCCN2)c1
inactive: dose: 6.25 mg/kg/injection, schedule: Q01DX009 (ip), vehicle: saline 97 % of control | dose: 6.25 mg/kg/injection, schedule: Q04DX003 (ip), vehicle: saline 97 % of control | dose: 12.5 mg/kg/injection, schedule: Q01DX009 (ip), vehicle: saline 104 % of control | dose: 12.5 mg/kg/injection, schedule: Q04DX003 (ip), vehicle: saline 92 % of control | [1] 97 % of control | dose: 25.0 mg/kg/injection, schedule: Q04DX003 (ip), vehicle: saline 97 % of control

CCN(CC)CCSC(=S)N1c2ccccc2Sc2ccccc21
inactive: dose: 17.5 mg/kg/injection, schedule: Q01DX009 (ip), vehicle: saline 90 % of control | dose: 17.5 mg/kg/injection, schedule: Q04DX003 (ip), vehicle: Klucel (hydroxypropylcellulose) (HPC) 102 % of control | dose: 35.0 mg/kg/injection, schedule: Q01DX009 (ip), vehicle: saline 96 % of control | dose: 35.0 mg/kg/injection, schedule: Q04DX003 (ip), vehicle: Klucel (hydroxypropylcellulose) (HPC) 93 % of control | dose: 70.0 mg/kg/injection, schedule: Q01DX009 (ip), vehicle: saline 87 % of control | dose: 70.0 mg/kg/injection, schedule: Q04DX003 (ip), vehicle: Klucel (hydroxypropylcellulose) (HPC) 96 % of control | dose: 140.0 mg/kg/injection, schedule: Q01DX009 (ip), vehicle: saline 91 % of control | dose: 140.0 mg/kg/injection, schedule: Q04DX003 (ip), vehicle: Klucel (hydroxypropylcellulose) (HPC) 98 % of control | dose: 280.0 mg/kg/injection, schedule: Q04DX003 (ip), vehicle: Klucel (hydroxypropylcellulose) (HPC) 95 % of control

Cc1c2ccccc2nc2ccccc12
inactive: dose: 100.0 mg/kg/injection, schedule: Q01DX001 (ip), vehicle: saline 106 % of control | dose: 200.0 mg/kg/injection, schedule: Q01DX001 (ip), vehicle: saline 98 % of control | dose: 400.0 mg/kg/injection, schedule: Q01DX001 (ip), vehicle: saline 101 % of control

Cc1cc(C)c(-c2cc(O)c(C)cc2O)c(C)c1
inactive: dose: 25.0 mg/kg/injection, schedule: Q01DX009 (ip), vehicle: other 103 % of control | dose: 50.0 mg/kg/injection, schedule: Q01DX009 (ip), vehicle: other 99 % of control | dose: 100.0 mg/kg/injection, schedule: Q01DX009 (ip), vehicle: other 101 % of control | dose: 200.0 mg/kg/injection, schedule: Q01DX009 (ip), vehicle: other 97 % of control | dose: 400.0 mg/kg/injection, schedule: Q01DX009 (ip), vehicle: other 100 % of control

O=[N+]([O-])c1ccc2nc(-c3ccccc3)c(-c3ccccc3)nc2c1
inactive: [2] 102 % of control | [3] 98 % of control | [4] 105 % of control | [5] 104 % of control | dose: 400.0 mg/kg/injection, schedule: Q01DX009 (ip), vehicle: Klucel (hydroxypropylcellulose) (HPC) 96 % of control | [6] 104 % of control

COC(=O)Cc1ccccc1OC
inactive: dose: 50.0 mg/kg/injection, schedule: Q01DX009 (ip), vehicle: saline with Tween-80 87 % of control | [7] 87 % of control | [8] 87 % of control

CC(=O)OC1C(OS(=O)(=O)c2ccc(C)cc2)C(COC(=O)c2ccccc2)OC1n1cnc2c(NC(=O)c3ccccc3)ncnc21 (stereo not drawn)
inactive: dose: 100.0 mg/kg/injection, schedule: Q01DX005 (ip), vehicle: saline 97 % of control | dose: 200.0 mg/kg/injection, schedule: Q01DX005 (ip), vehicle: saline 90 % of control

COc1ccc(C=[N+](C)CCc2ccc(OC)c(OC)c2)cc1OC
inactive: [1] 96 % of control | dose: 50.0 mg/kg/injection, schedule: Q01DX009 (ip), vehicle: saline 101 % of control | dose: 100.0 mg/kg/injection, schedule: Q01DX009 (ip), vehicle: saline 93 % of control and 116 % of control | [9] 100 % of control | dose: 200.0 mg/kg/injection, schedule: Q01DX009 (ip), vehicle: saline 98 % of control and 91 % of control | [10] 97 % of control

CN(C)C(=O)C1C2C=CC(CC2)C1C(=O)N(C)C (stereo not drawn)
inactive: [9] 96 % of control | [10] 96 % of control | dose: 400.0 mg/kg/injection, schedule: Q04DX003 (ip), vehicle: saline 96 % of control

CCOC(=O)c1ccc(N=NN(C)CC(C)C)cc1
inactive: dose: 100.0 mg/kg/injection, schedule: Q01DX001 (ip), vehicle: Klucel (hydroxypropylcellulose) (HPC) 107 % of control | [2] 112 % of control | [3] 105 % of control | dose: 200.0 mg/kg/injection, schedule: Q01DX001 (ip), vehicle: Klucel (hydroxypropylcellulose) (HPC) 104 % of control | [4] 122 % of control | [5] 107 % of control | dose: 400.0 mg/kg/injection, schedule: Q01DX001 (ip), vehicle: Klucel (hydroxypropylcellulose) (HPC) 107 % of control | [6] 108 % of control

F[Si](c1ccccc1)(c1ccccc1)c1ccccc1
inactive: dose: 37.5 mg/kg/injection, schedule: Q01DX009 (ip), vehicle: saline 88 % of control | dose: 75.0 mg/kg/injection, schedule: Q01DX001 (ip), vehicle: saline 93 % of control | dose: 75.0 mg/kg/injection, schedule: Q01DX009 (ip), vehicle: saline 95 % of control | dose: 150.0 mg/kg/injection, schedule: Q01DX001 (ip), vehicle: saline 102 % of control | dose: 150.0 mg/kg/injection, schedule: Q01DX009 (ip), vehicle: saline 95 % of control | dose: 300.0 mg/kg/injection, schedule: Q01DX001 (ip), vehicle: saline 93 % of control

CC(Oc1nc2c(c(=O)n(C)c(=O)n2C)n1C)C1CCCCC1 (stereo not drawn)
inactive: dose: 50.0 mg/kg/injection, schedule: Q01DX001 (ip), vehicle: other 95 % of control | dose: 100.0 mg/kg/injection, schedule: Q01DX001 (ip), vehicle: other 98 % of control | dose: 200.0 mg/kg/injection, schedule: Q01DX001 (ip), vehicle: other 93 % of control

Cc1nc(C#N)c(C#N)nc1C
inactive: dose: 6.25 mg/kg/injection, schedule: Q01DX009 (ip), vehicle: Klucel (hydroxypropylcellulose) (HPC) 96 % of control | dose: 12.5 mg/kg/injection, schedule: Q01DX009 (ip), vehicle: Klucel (hydroxypropylcellulose) (HPC) 98 % of control | dose: 12.5 mg/kg/injection, schedule: Q04DX003 (ip), vehicle: Klucel (hydroxypropylcellulose) (HPC) 101 % of control | dose: 25.0 mg/kg/injection, schedule: Q04DX003 (ip), vehicle: Klucel (hydroxypropylcellulose) (HPC) 100 % of control

O=C(/C=C/c1ccc(Cl)cc1Cl)c1ccc(Cl)cc1
inactive: [7] 105 % of control | [11] 95 % of control | [8] 90 % of control | [12] 93 % of control | [13] 90 % of control | [14] 88 % of control

COc1ccc(/C=C(C)/C=N/NC(=O)c2ccncc2)cc1OC
inactive: [11] 98 % of control | [12] 97 % of control | [14] 103 % of control

c1ccc(CNc2nccs2)cc1
inactive: dose: 75.0 mg/kg/injection, schedule: Q01DX001 (ip), vehicle: carboxymethylcellulose (CMC) 96 % of control | dose: 150.0 mg/kg/injection, schedule: Q01DX001 (ip), vehicle: carboxymethylcellulose (CMC) 91 % of control | dose: 300.0 mg/kg/injection, schedule: Q01DX001 (ip), vehicle: carboxymethylcellulose (CMC) 95 % of control

COc1cc(/C=C2\NC(=O)NC2=O)ccc1O
inactive: [8] 86 % of control | [13] 90 % of control
